Reference: PMC7150870 (Toxins, 2020)
Where two headings read alike, the source gives them in different places. Marks after values point to notes of the source that are not given here.

What was measured:
HEK293T = assay type: cell-based, human
[1] = test system: HepG2, Caco-2, RAW 264.7, and HEK 293T cells
HEK 293T cells = details: for comet tails (percentage of DNA): 25 µM, 24 h
Caco-2 cells [2] = test system: Caco-2 cells
cells = details: cited from earlier work
[3] = test system: human colon adenocarcinoma HT29 cells; details: cited from earlier work
P-gp = P-gp (Homo sapiens, UniProt P08183)
in vitro = details: human (HepG2, Caco-2, HEK 293T); mouse (RAW 264.7)
mice = details: mouse, in vivo, po; cited from earlier work
[4] = test system: TK6, and human hepatic HepaRG cells; details: 25 µM; cited from earlier work
epithelial cell layers = details: after 24 h; cited from earlier work
Caco-2 cells [5] = details: cited from earlier work
[6] = test system: human small intestinal cells; details: read-out: IC50 (not achieved up to); cited from earlier work
Caco-2 cells [7] = details: cited from earlier work; remark: listed apart in the source
[8] = human (Caco-2), mouse (RAW 264.7)

P-gp, sequence (P08183 whole entry, looked up): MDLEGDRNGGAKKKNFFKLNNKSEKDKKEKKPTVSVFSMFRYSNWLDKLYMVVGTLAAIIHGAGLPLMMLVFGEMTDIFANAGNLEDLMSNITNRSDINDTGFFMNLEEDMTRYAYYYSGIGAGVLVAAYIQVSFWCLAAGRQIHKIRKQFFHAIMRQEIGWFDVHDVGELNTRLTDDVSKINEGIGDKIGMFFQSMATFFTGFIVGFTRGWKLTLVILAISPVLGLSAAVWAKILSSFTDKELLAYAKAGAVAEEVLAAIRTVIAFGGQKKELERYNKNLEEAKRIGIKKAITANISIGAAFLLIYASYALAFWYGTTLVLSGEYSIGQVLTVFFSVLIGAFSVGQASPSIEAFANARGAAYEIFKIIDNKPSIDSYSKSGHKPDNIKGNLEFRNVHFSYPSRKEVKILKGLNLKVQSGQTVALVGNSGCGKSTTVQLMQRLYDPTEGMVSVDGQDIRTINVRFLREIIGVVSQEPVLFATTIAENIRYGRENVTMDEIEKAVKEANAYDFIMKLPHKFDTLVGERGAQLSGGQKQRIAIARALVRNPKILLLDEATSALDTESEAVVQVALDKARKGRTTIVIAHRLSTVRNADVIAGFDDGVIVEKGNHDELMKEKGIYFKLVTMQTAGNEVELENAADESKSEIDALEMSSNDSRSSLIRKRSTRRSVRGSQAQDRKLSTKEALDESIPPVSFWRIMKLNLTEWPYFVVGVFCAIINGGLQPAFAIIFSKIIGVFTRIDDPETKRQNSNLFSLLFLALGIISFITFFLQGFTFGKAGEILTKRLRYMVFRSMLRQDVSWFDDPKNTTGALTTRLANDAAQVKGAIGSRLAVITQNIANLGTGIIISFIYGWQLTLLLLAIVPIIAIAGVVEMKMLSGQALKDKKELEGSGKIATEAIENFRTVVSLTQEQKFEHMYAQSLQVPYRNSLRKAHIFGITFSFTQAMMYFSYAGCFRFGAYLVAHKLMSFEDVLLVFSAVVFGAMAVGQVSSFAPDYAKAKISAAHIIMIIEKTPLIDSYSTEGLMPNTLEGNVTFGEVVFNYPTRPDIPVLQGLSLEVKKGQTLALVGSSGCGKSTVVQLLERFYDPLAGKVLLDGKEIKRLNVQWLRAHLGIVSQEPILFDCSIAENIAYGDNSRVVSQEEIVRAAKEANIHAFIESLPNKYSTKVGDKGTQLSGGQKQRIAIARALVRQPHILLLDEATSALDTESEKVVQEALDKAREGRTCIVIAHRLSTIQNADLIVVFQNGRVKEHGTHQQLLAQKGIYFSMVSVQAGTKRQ

SMILES | combination index, mixture of DAS (6.58 nM) (HEK293T) | combination index, mixture of HT-2 (21.22 nM) (HEK293T) | combination index, mixture of T-2 (3.87 nM) (HEK293T) | type of interaction, mixture of DAS (6.58 nM) (HEK293T) | type of interaction, mixture of HT-2 (21.22 nM) (HEK293T) | type of interaction, mixture of T-2 (3.87 nM) (HEK293T) | percentage of DNA in comet tail with respect to the negative control (HEK 293T cells) | concentration with statistically significant decrease in viability of cells (cells) [µM] | transepithelial transport, Apical Medium (Caco-2 cells [2]; [8]) | transepithelial transport, Basolateral Medium (Caco-2 cells [2]; [8]) | transepithelial transport, Caco-2 Cells (Caco-2 cells [2]; [8]) | transepithelial transport, Raw 264.7 Cells (Caco-2 cells [2]; [8]) | transepithelial transport, Total (Caco-2 cells [2]; [8]) | IC50 (in vitro) [nM] | other results
COc1cc(O)c2c(=O)oc3cc(O)cc(C)c3c2c1 [AME, alternariol-9-methyl ether] | 0.90 ± 0.05 Add | 0.92 ± 0.06 Add | 0.97 ± 0.07 Add | 0.90 ± 0.05 Add (key: Syn: Combination index (CI) < 0.9; Add: 0.9 ≤ CI ≤ 1; Ant: CI > 1) | 0.92 ± 0.06 Add (key: Syn: Combination index (CI) < 0.9; Add: 0.9 ≤ CI ≤ 1; Ant: CI > 1) | 0.97 ± 0.07 Add (key: Syn: Combination index (CI) < 0.9; Add: 0.9 ≤ CI ≤ 1; Ant: CI > 1) | significantly increased | 25 |  |  |  |  |  |  | IC50 [1]: > 50 nM; comet tails (percentage of DNA) (HEK 293T cells): ~42%; metabolites found by non-target U-HPLC-MS analysis (Caco-2 cells [2]): 3-O-glucuronide, 7-O-glucuronide, and 3-O-sulfate; transepithelial transport, Apical Medium (Caco-2 cells [2]): 35.92 ± 1.53^c %; transepithelial transport, Basolateral Medium (Caco-2 cells [2]): 17.68 ± 0.86^bcd %; transepithelial transport, Caco-2 Cells (Caco-2 cells [2]): 0.49 ± 0.02^ab %; transepithelial transport, Raw 264.7 Cells (Caco-2 cells [2]): 0.01 ± 0.00^ab %; transepithelial transport, Total (Caco-2 cells [2]): 53.94 ± 1.59^bc %; concentrations significantly increasing the rate of DNA breaks [3]: ≥ 1000 nM
Cc1cc(O)cc2oc(=O)c3c(O)cc(O)cc3c12 [AOH, alternariol] | 0.91 ± 0.07 Add | 0.92 ± 0.02 Add | 1.00 ± 0.09 Add | 0.91 ± 0.07 Add (key: Syn: Combination index (CI) < 0.9; Add: 0.9 ≤ CI ≤ 1; Ant: CI > 1) | 0.92 ± 0.02 Add (key: Syn: Combination index (CI) < 0.9; Add: 0.9 ≤ CI ≤ 1; Ant: CI > 1) | 1.00 ± 0.09 Add (key: Syn: Combination index (CI) < 0.9; Add: 0.9 ≤ CI ≤ 1; Ant: CI > 1) | significantly increased | 50 | 39.00 ± 22.02^cd % | 59.97 ± 2.86^h % | 0.04 ± 0.02^a % | 0.07 ± 0.02^h % | 99.08 ± 24.47^e % | > 50 | comet tails (percentage of DNA) (HEK 293T cells): about 55%; P-gp activation (ATP consumption) (P-gp): activated P-gp in dose-dependent manner; metabolites found by non-target U-HPLC-MS analysis (Caco-2 cells [2]; [8]): 3-O-glucuronide and 9-O-glucuronide; concentrations significantly increasing the rate of DNA breaks [3]: ≥ 1000 nM
CC1=C[C@H]2O[C@@H]3[C@H](O)C[C@](C)([C@@]2(CO)[C@H](O)C1=O)[C@]31CO1 [DON, deoxynivalenol] | 0.88 ± 0.17 Syn | 0.87 ± 0.04 Syn | 1.29 ± 0.13 Ant | 0.88 ± 0.17 Syn (key: Syn: Combination index (CI) < 0.9; Add: 0.9 ≤ CI ≤ 1; Ant: CI > 1) | 0.87 ± 0.04 Syn (key: Syn: Combination index (CI) < 0.9; Add: 0.9 ≤ CI ≤ 1; Ant: CI > 1) | 1.29 ± 0.13 Ant (key: Syn: Combination index (CI) < 0.9; Add: 0.9 ≤ CI ≤ 1; Ant: CI > 1) | significantly increased | 1 | 73.33 ± 2.90^f % | 21.48 ± 0.91^cde % | 0.00 ± 0.00^a % | 0.01 ± 0.00^a % | 94.83 ± 2.14^e % |  | P-gp activation (ATP consumption) (P-gp): activated P-gp in dose-dependent manner; LD50 for mice (mice): 46 to 78 mg/kg; genotoxicity [4]: failed to induce genotoxicity; transport through the epithelial cell layers (epithelial cell layers): up to 38%
CC[C@H](C)[C@H]1C(=O)O[C@H](C(C)C)C(=O)N(C)[C@@H](C(C)C)C(=O)O[C@H](C(C)C)C(=O)N(C)[C@@H](C(C)C)C(=O)O[C@H](C(C)C)C(=O)N1C [ENN-B1, enniatin B1] | 0.82 ± 0.06 Syn | 0.90 ± 0.05 Add | 0.88 ± 0.07 Syn | 0.82 ± 0.06 Syn (key: Syn: Combination index (CI) < 0.9; Add: 0.9 ≤ CI ≤ 1; Ant: CI > 1) | 0.90 ± 0.05 Add (key: Syn: Combination index (CI) < 0.9; Add: 0.9 ≤ CI ≤ 1; Ant: CI > 1) | 0.88 ± 0.07 Syn (key: Syn: Combination index (CI) < 0.9; Add: 0.9 ≤ CI ≤ 1; Ant: CI > 1) |  | 2 | 10.46 ± 2.43^a % | 28.16 ± 3.37^e % | 0.51 ± 0.03^ab % | 0.60 ± 0.10^c % | 39.72 ± 4.74^ab % | > 50 | concentration with significant DNA damage (Caco-2 cells [5]): 3000 nM
CC(C)[C@H]1C(=O)O[C@H](C(C)C)C(=O)N(C)[C@@H](C(C)C)C(=O)O[C@H](C(C)C)C(=O)N(C)[C@@H](C(C)C)C(=O)O[C@H](C(C)C)C(=O)N1C [ENN-B, enniatin B] | 0.79 ± 0.08 Syn | 0.87 ± 0.05 Syn | 1.11 ± 0.10 Ant | 0.79 ± 0.08 Syn (key: Syn: Combination index (CI) < 0.9; Add: 0.9 ≤ CI ≤ 1; Ant: CI > 1) | 0.87 ± 0.05 Syn (key: Syn: Combination index (CI) < 0.9; Add: 0.9 ≤ CI ≤ 1; Ant: CI > 1) | 1.11 ± 0.10 Ant (key: Syn: Combination index (CI) < 0.9; Add: 0.9 ≤ CI ≤ 1; Ant: CI > 1) |  | 2 | 24.08 ± 3.20^abc % | 25.49 ± 4.31^e % | 1.15 ± 0.25^b % | 0.31 ± 0.03^b % | 51.02 ± 7.70^bc % | > 50 | metabolites found by non-target U-HPLC-MS analysis (Caco-2 cells [2]; [8]): metabolite M6; genotoxic effect (Caco-2 cells [5]; 3 µM): did not show genotoxic effect
COc1c(C)c2c(c(O)c1C/C=C(\C)CCC(=O)O)C(=O)OC2 [MPA, mycophenolic acid, reference compound] | 0.83 ± 0.07 Syn | 0.90 ± 0.04 Add | 0.85 ± 0.05 Syn | 0.83 ± 0.07 Syn (key: Syn: Combination index (CI) < 0.9; Add: 0.9 ≤ CI ≤ 1; Ant: CI > 1) | 0.90 ± 0.04 Add (key: Syn: Combination index (CI) < 0.9; Add: 0.9 ≤ CI ≤ 1; Ant: CI > 1) | 0.85 ± 0.05 Syn (key: Syn: Combination index (CI) < 0.9; Add: 0.9 ≤ CI ≤ 1; Ant: CI > 1) | no significant DNA damage |  | 57.27 ± 0.79^ef % | 39.77 ± 0.52^f % | 0.00 ± 0.00^a % | 0.02 ± 0.00^a % | 97.07 ± 0.27^e % | > 50 | IC50 [6]: > 156 nM
C[C@H]1CCC[C@H](O)CCC/C=C/c2cc(O)cc(O)c2C(=O)O1 [α-ZEA] |  |  |  |  |  |  |  |  |  |  |  |  |  |  | share of total metabolites produced by Caco-2 cells (Caco-2 cells [7]): 41%
C[C@H]1CCC[C@@H](O)CCC/C=C/c2cc(O)cc(O)c2C(=O)O1 [β-ZEA] |  |  |  |  |  |  |  |  |  |  |  |  |  |  | share of total metabolites produced by Caco-2 cells (Caco-2 cells [7]): 32%
